The record followed here is ChEMBL document CHEMBL5523749, “Amphiphilic Heparinoids as Potent Antiviral Agents against SARS-CoV-2” (J Med Chem, 2024).

One test addresses T1, Heparanase (Homo sapiens, UniProt Q9Y251).
T1 sequence (Q9Y251 whole entry): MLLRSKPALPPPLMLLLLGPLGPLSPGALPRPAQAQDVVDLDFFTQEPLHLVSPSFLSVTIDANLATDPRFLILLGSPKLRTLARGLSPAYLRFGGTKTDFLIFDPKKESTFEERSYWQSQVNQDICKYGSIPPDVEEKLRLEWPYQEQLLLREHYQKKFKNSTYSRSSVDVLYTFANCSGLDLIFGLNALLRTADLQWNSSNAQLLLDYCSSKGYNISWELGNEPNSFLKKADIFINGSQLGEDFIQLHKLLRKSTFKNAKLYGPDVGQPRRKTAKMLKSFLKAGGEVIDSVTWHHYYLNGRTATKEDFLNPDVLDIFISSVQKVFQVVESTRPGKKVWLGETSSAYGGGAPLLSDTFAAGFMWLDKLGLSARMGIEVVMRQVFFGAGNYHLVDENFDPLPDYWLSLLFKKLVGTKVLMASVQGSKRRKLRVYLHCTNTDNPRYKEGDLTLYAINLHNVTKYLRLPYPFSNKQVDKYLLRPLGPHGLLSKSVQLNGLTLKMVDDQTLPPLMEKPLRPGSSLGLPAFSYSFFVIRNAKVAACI
Put plainly: Inhibition of recombinant human heparanase expressed in Insect cells assessed as fondaparinux cleavage by measuring disaccharide product incubated for 18 to 21 hrs. Particulars: insect cell; call rule not given here.

Test [1] concerns SARS-CoV-2. Briefly: microbe, parasite or virus in culture. The note with it: Severe acute respiratory syndrome coronavirus 2, D614, Vero C1008.
Description: (§1) Antiviral activity against SARS-CoV-2 D614 isolates infected in African green monkey Vero E6 cells assessed as reduction in plaque formation treated for 1 hr prior to infection with cells incubated for 30 mins by plaque reduction neutralization test
The target in a further test is Spike glycoprotein (Severe acute respiratory syndrome coronavirus 2, UniProt P0DTC2). Briefly: Binding affinity to RBD domain of SARS-CoV-2 spike protein assessed as dissociation constant by Isothermal Titration Calorimetry. A general note: In ITC the heat of successive injections is recorded.
The test system of test [2] is Respiratory syncytial virus. Briefly: Antiviral activity against RSV A2 strain infected in HEp-2 cells assessed as reduction in plaque number measured after 3 days incubation. Particulars: human respiratory syncytial virus, A2, HEp-2, 72 h.
The subject of a further test is Human alphaherpesvirus 2. Briefly: Antiviral activity against HSV2 infected in CMK AH1 cells assessed as reduction in plaque number measured after 2 days incubation. The note with it: Human alphaherpesvirus 2, CMK AH1, 48 h.
Test [3] deals with SARS-CoV-2. The test is classed as functional, organism-based, Severe acute respiratory syndrome coronavirus 2, G614, Vero E6. The note with it: Severe acute respiratory syndrome coronavirus 2, G614, Vero C1008; read-out: IC50.
The subject of test [4] is SARS-CoV-2. The note with it: vero e6.
Description: as §1

Structures are written as SMILES. In brackets after ≈: the same amount, converted by molar mass.

With `CC(C)CCC[C@@H](C)[C@H]1CC[C@H]2[C@@H]3CC[C@H]4C[C@@H](O[C@@H]5O[C@@H](C(=O)O)[C@@H](O[C@@H]6O[C@@H](C(=O)O)[C@@H](OS(=O)(=O)O)[C@H](O)[C@H]6OS(=O)(=O)O)[C@H](O)[C@H]5OS(=O)(=O)O)CC[C@]4(C)[C@H]3CC[C@]12C`, the values for the IC50 entry at Heparanase and in the test on SARS-CoV-2 [1] were “Not Active” and 33.7 µg/mL (≈ 34.3 µM), respectively.
As for `CC(C)CCC[C@@H](C)[C@H]1CC[C@H]2[C@@H]3CC[C@H]4C[C@@H](O[C@@H]5O[C@H](COS(=O)(=O)[O-])[C@@H](O[C@H]6O[C@H](COS(=O)(=O)[O-])[C@@H](O[C@H]7O[C@H](COS(=O)(=O)[O-])[C@@H](O[C@H]8O[C@H](COS(=O)(=O)[O-])[C@@H](OS(=O)(=O)[O-])[C@H](OS(=O)(=O)[O-])[C@H]8OS(=O)(=O)[O-])[C@H](OS(=O)(=O)[O-])[C@H]7OS(=O)(=O)[O-])[C@H](OS(=O)(=O)[O-])[C@H]6OS(=O)(=O)[O-])[C@H](OS(=O)(=O)[O-])[C@H]5OS(=O)(=O)[O-])CC[C@]4(C)[C@H]3CC[C@]12C.[Na+].[Na+].[Na+].[Na+].[Na+].[Na+].[Na+].[Na+].[Na+].[Na+].[Na+].[Na+].[Na+]`, on Spike glycoprotein, the Kd stood at 9.12 µM. In addition, the IC50 was roughly 1 µg/mL in test [2], 29.6 µg/mL in the test on SARS-CoV-2 [1] and roughly 1 µg/mL in the test on Human alphaherpesvirus 2.
With `[N-]=[N+]=NCCCCCCCCCCC(=O)NCCCCCCCCCCCO[C@@H]1O[C@H](COS(=O)(=O)[O-])[C@@H](O[C@H]2O[C@H](COS(=O)(=O)[O-])[C@@H](O[C@H]3O[C@H](COS(=O)(=O)[O-])[C@@H](O[C@H]4O[C@H](COS(=O)(=O)[O-])[C@@H](OS(=O)(=O)[O-])[C@H](OS(=O)(=O)[O-])[C@H]4OS(=O)(=O)[O-])[C@H](OS(=O)(=O)[O-])[C@H]3OS(=O)(=O)[O-])[C@H](OS(=O)(=O)[O-])[C@H]2OS(=O)(=O)[O-])[C@H](OS(=O)(=O)[O-])[C@H]1OS(=O)(=O)[O-].[Na+].[Na+].[Na+].[Na+].[Na+].[Na+].[Na+].[Na+].[Na+].[Na+].[Na+].[Na+].[Na+]`, the IC50 was 84.1 µg/mL in the test on SARS-CoV-2 [3] and “Not Active” in the test with SARS-CoV-2 [4].

Usually IC50 stands for the concentration needed to halve the response being measured. The Kd is the free concentration of one partner at which half of the binding sites on the other are occupied at equilibrium, for simple one-to-one binding.
